# Measurements: ChEMBL document CHEMBL1777766, “Design, synthesis and in vitro antibacterial activity of 7-(4-alkoxyimino-3-aminomethylpiperidin-1-yl)fluoroquinolone derivatives” (Bioorg Med Chem Lett, 2011)
# Key:
# Serratia marcescens = test: Antibacterial activity against Serratia marcescens 41002; format: functional
# Shigella sonnei = test: Antibacterial activity against Shigella sonnei 51592; format: functional
# Enterococcus faecalis [1] = test: Antibacterial activity against vancomycin-resistant Enterococcus faecalis EFL1004; format: functional
# Streptococcus pyogenes = test: Antibacterial activity against Streptococcus pyogenes 556; format: functional
# Escherichia coli [2] = test: Antibacterial activity against Escherichia coli ATCC 25922; format: functional
# [3] = test system: Staphylococcus epidermidis; test: Antibacterial activity against methicillin-resistant Staphylococcus epidermidis 08-18; format: functional
# Escherichia coli [4] = test: Antibacterial activity against Extended spectrum beta-lactamase producing Escherichia coli 08-5; format: functional
# Streptococcus pneumoniae [5] = test: Antibacterial activity against penicillin-resistant Streptococcus pneumoniae 08-2; format: functional
# Pseudomonas aeruginosa = test: Antibacterial activity against Pseudomonas aeruginosa 17; format: functional
# Salmonella typhi = test: Antibacterial activity against Bacillus typhi 50035; format: functional, Salmonella enterica subsp. enterica serovar Typhi; conditions: Salmonella enterica
# Klebsiella pneumoniae = test: Antibacterial activity against Klebsiella pneumoniae ATCC 700603; format: functional
# Staphylococcus aureus [6] = test: Antibacterial activity against methicillin-sensitive Staphylococcus aureus 08-49; format: functional
# Staphylococcus aureus [7] = test: Antibacterial activity against Staphylococcus aureus ATCC 13709; format: functional
# Morganella morganii = test: Antibacterial activity against Morganella morganii 49086; format: functional
# Enterococcus faecalis [8] = test: Antibacterial activity against Enterococcus faecalis ATCC 51299; format: functional
# Staphylococcus aureus [9] = test: Antibacterial activity against methicillin-resistant Staphylococcus aureus 08-52; format: functional
# [10] = test system: Acinetobacter calcoaceticus; test: Antibacterial activity against Acinetobacter calcoaceticus 25001; format: functional
# Proteus vulgaris = test: Antibacterial activity against Proteus vulgaris 56; format: functional
# Streptococcus pneumoniae [11] = test: Antibacterial activity against Streptococcus pneumoniae ATCC 6301; format: functional
# [12] = test system: Staphylococcus epidermidis; test: Antibacterial activity against Staphylococcus epidermidis ATCC 12228; format: functional
# Enterobacter cloacae = test: Antibacterial activity against Enterobacter cloacae 45301; format: functional
# [13] = test system: Staphylococcus epidermidis; test: Antibacterial activity against methicillin-sensitive Staphylococcus epidermidis 08-17; format: functional
# Providencia rettgeri = test: Antibacterial activity against Proteus rettgeri 49006; format: functional
# Klebsiella aerogenes = test: Antibacterial activity against Enterobacter aerogenes 45102; format: functional
# [14] = Cytotoxicity against african green monkey Vero cells after 24 hrs; format: cell-based; conditions: chlorocebus sabaeus
SMILES,MIC (Serratia marcescens) [µg/mL],MIC (Shigella sonnei) [µg/mL],MIC (Enterococcus faecalis [1]) [µg/mL],MIC (Streptococcus pyogenes) [µg/mL],MIC (Escherichia coli [2]) [µg/mL],MIC [3] [µg/mL],MIC (Escherichia coli [4]) [µg/mL],MIC (Streptococcus pneumoniae [5]) [µg/mL],MIC (Pseudomonas aeruginosa) [µg/mL],MIC (Salmonella typhi) [µg/mL],MIC (Staphylococcus aureus [6]) [µg/mL],MIC (Morganella morganii) [µg/mL],MIC (Enterococcus faecalis [8]) [µg/mL],MIC (Staphylococcus aureus [9]) [µg/mL],MIC [10] [µg/mL],MIC (Proteus vulgaris) [µg/mL],MIC [12] [µg/mL],MIC [13] [µg/mL],MIC (Providencia rettgeri) [µg/mL],MIC (Klebsiella aerogenes) [µg/mL],further results
CO/N=C1\CCN(c2c(F)cc3c(=O)c(C(=O)O)cn(C4CC4)c3c2F)CC1CN (racemic),4,1,4,16,1,4,> 128,8,8,1,0.5,1,4,0.5,2,4,1,1,8,1,MIC (Klebsiella pneumoniae): 16 µg/mL; MIC (Staphylococcus aureus [7]): 0.5 µg/mL; MIC (Streptococcus pneumoniae [11]): 8 µg/mL; MIC (Enterobacter cloacae): 32 µg/mL
CCO/N=C1\CCN(c2c(F)cc3c(=O)c(C(=O)O)cn(C4CC4)c3c2F)CC1CN (racemic),4,0.5,2,32,1,0.25,> 128,4,16,0.5,0.25,4,2,1,2,4,0.25,2,8,2,CC50 at 24 h [14]: 257 µg/mL; MIC (Klebsiella pneumoniae): 32 µg/mL; MIC (Staphylococcus aureus [7]): 0.5 µg/mL; MIC (Streptococcus pneumoniae [11]): 8 µg/mL; MIC (Enterobacter cloacae): > 128 µg/mL
CO/N=C1\CCN(c2c(F)cc3c(=O)c(C(=O)O)cn(C4CC4)c3c2OC(F)F)CC1CN (racemic),8,16,4,4,1,0.5,> 128,2,8,0.5,0.125,4,1,1,2,4,0.5,1,4,2,CC50 at 24 h [14]: 335 µg/mL; MIC (Klebsiella pneumoniae): 32 µg/mL; MIC (Staphylococcus aureus [7]): 0.25 µg/mL; MIC (Streptococcus pneumoniae [11]): 4 µg/mL; MIC (Enterobacter cloacae): 2 µg/mL
CCO/N=C1\CCN(c2c(F)cc3c(=O)c(C(=O)O)cn(C4CC4)c3c2OC(F)F)CC1CN (racemic),32,2,4,16,4,2,> 128,4,16,2,0.25,8,2,2,4,8,2,4,16,8,CC50 at 24 h [14]: 203 µg/mL; MIC (Klebsiella pneumoniae): 64 µg/mL; MIC (Staphylococcus aureus [7]): 1 µg/mL; MIC (Streptococcus pneumoniae [11]): 8 µg/mL; MIC (Enterobacter cloacae): 8 µg/mL
CCn1cc(C(=O)O)c(=O)c2cc(F)c(N3CC/C(=N\OC)C(CN)C3)c(F)c21 (racemic),8,4,32,64,4,4,> 128,16,32,4,4,4,8,8,16,8,8,16,8,8,CC50 at 24 h [14]: > 500 µg/mL; MIC (Klebsiella pneumoniae): 128 µg/mL; MIC (Staphylococcus aureus [7]): 2 µg/mL; MIC (Streptococcus pneumoniae [11]): 32 µg/mL; MIC (Enterobacter cloacae): > 128 µg/mL
CCO/N=C1\CCN(c2c(F)cc3c(=O)c(C(=O)O)cn(CC)c3c2F)CC1CN (racemic),16,128,32,64,8,8,> 128,32,128,8,4,16,16,8,128,16,8,32,32,16,CC50 at 24 h [14]: 410 µg/mL; MIC (Klebsiella pneumoniae): > 128 µg/mL; MIC (Staphylococcus aureus [7]): 4 µg/mL; MIC (Streptococcus pneumoniae [11]): 64 µg/mL; MIC (Enterobacter cloacae): > 128 µg/mL
CO/N=C1\CCN(c2c(F)cc3c(=O)c(C(=O)O)cn(CCF)c3c2F)CC1CN (racemic),16,32,16,32,8,8,> 128,16,32,8,2,16,8,8,128,16,8,32,16,32,MIC (Klebsiella pneumoniae): 128 µg/mL; MIC (Staphylococcus aureus [7]): 4 µg/mL; MIC (Streptococcus pneumoniae [11]): 32 µg/mL; MIC (Enterobacter cloacae): > 128 µg/mL
O=C(O)c1cn(C2CC2)c2cc(N3CCNCC3)c(F)cc2c1=O [CIPROFLOXACIN],0.25,≤ 0.03,1,1,≤ 0.03,0.25,128,1,16,≤ 0.03,0.25,≤ 0.03,0.5,4,1,≤ 0.03,0.25,2,≤ 0.03,≤ 0.03,MIC (Klebsiella pneumoniae): 0.5 µg/mL; MIC (Streptococcus pneumoniae [11]): 1 µg/mL
CO/N=C1\CN(c2nc3c(cc2F)c(=O)c(C(=O)O)cn3C2CC2)CC1CN (stereo not given) [GEMIFLOXACIN],0.125,≤ 0.03,0.5,0.125,≤ 0.03,≤ 0.03,32,≤ 0.03,32,≤ 0.03,≤ 0.03,0.06,0.06,0.5,0.125,≤ 0.03,0.06,0.06,0.06,≤ 0.03,MIC (Klebsiella pneumoniae): 0.5 µg/mL; MIC (Staphylococcus aureus [7]): ≤ 0.03 µg/mL; MIC (Streptococcus pneumoniae [11]): 0.5 µg/mL; MIC (Enterobacter cloacae): ≤ 0.03 µg/mL
C[C@H]1COc2c(N3CCN(C)CC3)c(F)cc3c(=O)c(C(=O)O)cn1c23.C[C@H]1COc2c(N3CCN(C)CC3)c(F)cc3c(=O)c(C(=O)O)cn1c23.O [LEVOFLOXACIN],0.25,≤ 0.03,2,1,≤ 0.03,0.125,32,,8,≤ 0.03,0.06,≤ 0.03,0.25,1,0.25,≤ 0.03,0.125,1,0.25,≤ 0.03,MIC (Staphylococcus aureus [7]): 0.06 µg/mL; MIC (Enterobacter cloacae): 0.06 µg/mL
